Where two headings read alike, the source gives them in different places.

For orientation: IC50 means the point on the concentration scale where inhibition reaches its midpoint. One may read the EC50 as the midpoint of the concentration-response curve.

Data set [1] addresses T1, zfPXR (Danio rerio, UniProt A5WYG8). The data set is described as follows: cell-based. Particulars: for zfPXR antagonism Min: ZFL-zfPXR, coexposure with 0.03 µM clotrimazole, % of maximal induced by 1 µM clotrimazole. The method, then: (§1) The ability of chemicals to modulate the hPXR and zfPXR was investigated in HG5LN, HG5LN-hPXR, HG5LN-zfPXR, and ZFL-zfPXR cell lines after exposure to serial dilutions of the compounds and measurement of luciferase activity. […] Briefly, cells were seeded in 96-well white opaque flat bottom microplates at 0.5 10^5 cells per well in culture medium. […] Cells were then exposed to a concentration range of the compounds by using an automated workstation (Biomek 3000, Beckman Coulter). The final concentration of DMSO in the well never exceeds 0.1% (v/v). After 16h of exposure, medium was removed and 50 µL of test medium containing 0.3 mM D-luciferin were added per well. After 5 min, the production of light was assessed in living cells using microplate reader (MicroBeta, PerkinElmer SAS, Courtabœuf, France).
(§2) In the transactivation assay, each compound was tested at various concentrations in three independent experiments at least. For each experiment, tests were performed in quadruplicates for each concentration, and data are expressed by means values with standard deviations. […] This allowed to determine EC50 and IC50 values of tested chemicals.

In data set [2] the target is T1, zfPXR. The experiment in a line: HG5LN Gal4-zfPXR luciferase reporter gene assay, antagonism (coexposure with clotrimazole). The format is cell-based, zebrafish. The method, then:
(§3) The cell lines used in this study are listed in Supplementary Table 3 . The HG5LN, HG5LN Gal4-hPXR and HG5LN Gal4-zfPXR cell lines were previously described ([19]). Briefly, HeLa cells stably transfected with the GAL4RE5-βGlobin-Luc-SVNeo plasmid (HG5LN cell line) ([15]). HG5LN cells were stably transfected with the pSG5-GAL4(DBD)-hPXR(LBD)-puro or pSG5-GAL4(DBD)-zfPXR(LBD)-puro plasmids.
(§4) HG5LN cells were cultured in Dulbecco’s Modified Eagle Medium: Nutrient Mixture F-12 (D-MEM/F-12) containing phenol red and 1 g/L glucose and supplemented with 5% fetal bovine serum, 100 units/mL of penicillin and 100 µg/mL of streptomycin supplemented with 1 mg/mL geneticin in a 5% CO2 humidified atmosphere at 37°C. HG5LN GAL4-hPXR and GAL4-zfPXR were cultured in the same culture medium supplemented with 0.5 µg/mL puromycin.
as §1, §2
On the technique in general: In a reporter assay the amount or activity of a reporter protein is the signal.

The target in a further data set is T2, hPXR (Homo sapiens, UniProt O75469).
T2 sequence (O75469 146-433 limits assumed): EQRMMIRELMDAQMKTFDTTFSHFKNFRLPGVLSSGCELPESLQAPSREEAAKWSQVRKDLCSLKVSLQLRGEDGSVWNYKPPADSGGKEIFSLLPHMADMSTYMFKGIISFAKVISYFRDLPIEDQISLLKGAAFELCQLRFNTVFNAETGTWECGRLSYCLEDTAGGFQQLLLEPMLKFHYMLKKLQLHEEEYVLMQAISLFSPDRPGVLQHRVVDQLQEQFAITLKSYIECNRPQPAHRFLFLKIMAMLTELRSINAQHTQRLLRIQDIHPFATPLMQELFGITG
The data set is described as follows: HG5LN Gal4-hPXR luciferase reporter gene assay, agonism. The protocol:
as §3, §4, §1, §2

Data set [3] addresses T1, zfPXR. The experiment in a line: cell-based. Also noted: Emax: dose or concentration left out as unconfirmed. The method, then: as §1, §2
Data set [4] has as its target T1, zfPXR. The data set is described as follows: HG5LN Gal4-zfPXR luciferase reporter gene assay, agonism. The format is cell-based, zebrafish. The protocol:
as §3, §4, §1, §2

Where [5] appears, read: HG5LN-hPXR, maximal activity at 10 µM, % of maximal induced by 3 µM SR 12813, DMSO 19 ± 6.
Where [6] appears, read: HG5LN, read-out: zfPXR antagonism Min.
The mark [7] stands for this setting: read-out: zfPXR antagonism IC50.

T1 sequence (A5WYG8 entry or part of it): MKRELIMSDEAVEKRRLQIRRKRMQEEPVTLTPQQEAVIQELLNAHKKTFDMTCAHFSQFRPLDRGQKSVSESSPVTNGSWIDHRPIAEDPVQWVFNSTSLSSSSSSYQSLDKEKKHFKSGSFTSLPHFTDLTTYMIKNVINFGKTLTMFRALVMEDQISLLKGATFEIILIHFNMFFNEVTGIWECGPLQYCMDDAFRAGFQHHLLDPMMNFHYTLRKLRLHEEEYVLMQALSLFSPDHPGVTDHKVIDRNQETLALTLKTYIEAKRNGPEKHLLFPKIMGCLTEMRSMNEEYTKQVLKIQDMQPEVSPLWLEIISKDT

In the case of `CC#C[C@]1(O)CC[C@H]2[C@@H]3CCC4=CC(=O)CCC4=C3[C@@H](c3ccc(N(C)C)cc3)C[C@@]21C` [Mifepristone, reference compound], the IC50 came to 0.06 ± 0.004 µM against zfPXR [1] and 0.08 ± 0.003 µM against zfPXR [2]. The “zfPXR antagonism Min” value at zfPXR [1] (compounds marked *, not tested above 3 µM) is 5%.

Regarding `CCCN(CCOc1c(Cl)cc(Cl)cc1Cl)C(=O)n1ccnc1` [Prochloraz], on hPXR, a half-maximal response (EC50) required 1.8 ± 0.1 µM and the “hPXR agonism Max” value is given as 71%. Also, the IC50 at zfPXR [2] is 11 ± 5.6 µM.

On hPXR, `OC(c1ccc(Cl)cc1)(c1cncnc1)c1ccccc1Cl` (centres unmarked) [Fenarimol] came in with an EC50 of 13 ± 2.2 µM. For the same compound, on hPXR (setting [5]), the “hPXR agonism Max” value was found to be 56%. Besides, the IC50 against zfPXR [2] turned out to be 24 ± 7.1 µM. The remaining activity at 10 µM on zfPXR [2] (setting [6]) amounted to 66%.

As to `ClC1=C(Cl)[C@]2(Cl)[C@@H]3[C@@H]4C[C@@H]([C@H]5O[C@@H]45)[C@@H]3[C@@]1(Cl)C2(Cl)Cl` [Dieldrin], on hPXR, it took 9.2 ± 1.4 µM to reach a half-maximal effect (EC50) and the “hPXR agonism Max” value came out at 62%. At zfPXR [2], the IC50 came to 19 ± 8.8 µM.

For the compound `CCC(CC)Nc1c([N+](=O)[O-])cc(C)c(C)c1[N+](=O)[O-]` [Pendimethalin], the EC50 is 0.12 ± 0.01 µM at zfPXR [3], 3 ± 0.1 µM on hPXR and 0.47 ± 0.1 µM at zfPXR [4]. Besides, the Emax on zfPXR [3] (read-out: zfPXR agonism Max) turned out to be 92%. On hPXR, the “hPXR agonism Max” value turned out to be 91%.

As for `CCOc1cc(Oc2ccc(C(F)(F)F)cc2Cl)ccc1[N+](=O)[O-]` [Oxyfluorfen], at hPXR, it took 3 ± 0.1 µM to reach a half-maximal effect (EC50). Further, the “hPXR agonism Max” value on hPXR (setting [5]) is on record as 86%. The compound also yielded an IC50 against zfPXR [2] of 10 ± 1.2 µM. In addition, on zfPXR [2] (setting [6]), the remaining activity at 10 µM was 56%.

As for `CC(C)(C)C(O)(CCc1ccc(Cl)cc1)Cn1cncn1` (centres unmarked) [Tebuconazole], the EC50 at hPXR was 6.8 ± 0.4 µM. The “hPXR agonism Max” value on hPXR (setting [5]) worked out at 71%. For the same compound, the IC50 against zfPXR [2] is 24 ± 4.3 µM. Besides, at zfPXR [2] (setting [6]), the remaining activity at 10 µM turned out to be 62%.

In the case of `CC1(C)[C@H](C(=O)O[C@H](C#N)c2cccc(Oc3ccccc3)c2)[C@@H]1C=C(Br)Br` [Deltamethrin], the results for the IC50 on zfPXR [1] and against zfPXR [2] were 1.6 ± 0.06 µM and 1.6 ± 0.2 µM, respectively. Moreover, the “zfPXR antagonism Min” value on zfPXR [1] (minimal activity at 10 µM) amounted to 3%. The EC50 on hPXR turned out to be 1.8 ± 0.2 µM. Also, the “hPXR agonism Max” value at hPXR (setting [5]) came out at 92%. Besides, the remaining activity at 10 µM at zfPXR [2] (setting [6]) was 21%.

On hPXR, `CC(=O)[C@H]1CC[C@H]2[C@@H]3CCC4=CC(=O)CC[C@]4(C)[C@H]3CC[C@]12C` [Progesterone, reference compound] had an EC50 of 9.1 ± 2.2 µM. For the same compound, the remaining activity at 10 µM at zfPXR [2] (HG5LN; read-out: zfPXR antagonism Min) is 14%. At zfPXR [2] (setting [7]), the IC50 came out at 0.64 ± 0.03 µM.

Consider `C[C@]12CCC(=O)C=C1[C@@H]1C[C@@H]1[C@H]1[C@@H]3[C@@H]4C[C@@H]4[C@@]4(CCC(=O)O4)[C@@]3(C)CC[C@@H]12` [Drospirenone, reference compound], for which the “hPXR agonism Max” value on hPXR (setting [5]) came to 44%. The remaining activity at 10 µM on zfPXR [2] (setting [6]) is 52%. On zfPXR [2] (setting [7]), the IC50 was 3.6 ± 0.4 µM.

In the case of `C#C[C@]1(O)CC[C@H]2[C@@H]3CCC4=CCCC[C@@H]4[C@H]3C(=C)C[C@@]21CC` [Desogestrel, reference compound], the EC50 is 0.07 ± 0.004 µM at zfPXR [3] and 0.13 ± 0.01 µM at zfPXR [4] (HG5LN-zfPXR cells, 16h exposure, n.a. = not active, read-out: zfPXR agonism EC50). At hPXR, the “hPXR agonism Max” value was determined as 54%.

The values are drawn from PMC8167039, “A Comparative Study of Human and Zebrafish Pregnane X Receptor Activities of Pesticides and Steroids Using In Vitro Reporter Gene Assays” (Frontiers in Endocrinology, 2021).
